8 compounds from US20250243171A1, “QUINAZOLINE COMPOUNDS FOR TREATMENT OF DISEASE” (Arthrosi Therapeutics, Inc., priority 2021, published 2025) can be followed below.

pEC50: −log10 of the molar value. Where only a bound is given, the exact number is not on record here.

Test in all cases: EC50 assay: Ba/F3 stable cell proliferation (CCK-8, 72 h)
Common to all, as to assay type: cell-based

Test [1] deals with T1, Ba/F3 stable cells (Homo sapiens, UniProt P00533, DUP767-769, cells depend on it).
T1 construct: EC50 Ba/F3-EGFR V769-D770insASV; other: Ba/F3-EGFR V769-D770insASV cells, 72 h, CCK-8
The conditions noted are these: Ba/F3-EGFR V769-D770insASV cells. The method, boiled down:
(§1)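 Ba/F3 stable cells were seeded at 4,000 cells/90 μL/well in 96-well plates and held 2 h at 37° C. in 5% CO2, then given 10 μL of serially titrated compound (0.1% DMSO final). After 72 h at 37° C., CCK-8 reagent was added for 4 hours and absorbance read at 450 nm to derive EC50.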

The target in test [2] is T2, Ba/F3 stable cells (Homo sapiens, UniProt P00533, DUP768-770, cells depend on it).
T2 construct: EC50 Ba/F3-EGFR D770-N771insSVD; other: Ba/F3-EGFR D770-N771insSVD cells, 72 h, CCK-8
The conditions noted are these: Ba/F3-EGFR D770-N771insSVD cells. The gist of the method: as §1

The target in test [3] is T3, Ba/F3 stable cells (Homo sapiens, UniProt P00533, DUP771-773, cells depend on it).
T3 construct: EC50 Ba/F3-EGFR H773-V774insNPH; other: Ba/F3-EGFR H773-V774insNPH cells, 72 h, CCK-8
The conditions noted are these: Ba/F3-EGFR H773-V774insNPH cells. The method, boiled down: as §1

For test [4], the target named is T4, Ba/F3 stable cells (Homo sapiens, UniProt P00533, INS763FQEA, cells depend on it).
T4 construct: EC50 Ba/F3-EGFR A763-Y764insFQEA; other: Ba/F3-EGFR A763-Y764insFQEA cells, 72 h, CCK-8
The note with it: Ba/F3-EGFR A763-Y764insFQEA cells. The gist of the method:
as §1

The target of test [5] is T5, Ba/F3 stable cells (Homo sapiens, UniProt P00533, T790M/L858R, cells depend on it).
T5 construct: EC50 Ba/F3-EGFR L858R-T790M; other: Ba/F3-EGFR L858R-T790M cells, 72 h, CCK-8
The conditions noted are these: Ba/F3-EGFR L858R-T790M cells. The method, boiled down:
as §1

The target of test [6] is T6, Ba/F3 stable cells (Homo sapiens, UniProt P04626, DUP772-775, cells depend on it).
T6 construct: EC50 Ba/F3-HER2 A775-G776insYVMA; other: Ba/F3-HER2 A775-G776insYVMA cells, 72 h, CCK-8
The conditions noted are these: Ba/F3-HER2 A775-G776insYVMA cells. The gist of the method: as §1

T2 sequence (P00533 with tags, fused parts or gaps DUP768-770): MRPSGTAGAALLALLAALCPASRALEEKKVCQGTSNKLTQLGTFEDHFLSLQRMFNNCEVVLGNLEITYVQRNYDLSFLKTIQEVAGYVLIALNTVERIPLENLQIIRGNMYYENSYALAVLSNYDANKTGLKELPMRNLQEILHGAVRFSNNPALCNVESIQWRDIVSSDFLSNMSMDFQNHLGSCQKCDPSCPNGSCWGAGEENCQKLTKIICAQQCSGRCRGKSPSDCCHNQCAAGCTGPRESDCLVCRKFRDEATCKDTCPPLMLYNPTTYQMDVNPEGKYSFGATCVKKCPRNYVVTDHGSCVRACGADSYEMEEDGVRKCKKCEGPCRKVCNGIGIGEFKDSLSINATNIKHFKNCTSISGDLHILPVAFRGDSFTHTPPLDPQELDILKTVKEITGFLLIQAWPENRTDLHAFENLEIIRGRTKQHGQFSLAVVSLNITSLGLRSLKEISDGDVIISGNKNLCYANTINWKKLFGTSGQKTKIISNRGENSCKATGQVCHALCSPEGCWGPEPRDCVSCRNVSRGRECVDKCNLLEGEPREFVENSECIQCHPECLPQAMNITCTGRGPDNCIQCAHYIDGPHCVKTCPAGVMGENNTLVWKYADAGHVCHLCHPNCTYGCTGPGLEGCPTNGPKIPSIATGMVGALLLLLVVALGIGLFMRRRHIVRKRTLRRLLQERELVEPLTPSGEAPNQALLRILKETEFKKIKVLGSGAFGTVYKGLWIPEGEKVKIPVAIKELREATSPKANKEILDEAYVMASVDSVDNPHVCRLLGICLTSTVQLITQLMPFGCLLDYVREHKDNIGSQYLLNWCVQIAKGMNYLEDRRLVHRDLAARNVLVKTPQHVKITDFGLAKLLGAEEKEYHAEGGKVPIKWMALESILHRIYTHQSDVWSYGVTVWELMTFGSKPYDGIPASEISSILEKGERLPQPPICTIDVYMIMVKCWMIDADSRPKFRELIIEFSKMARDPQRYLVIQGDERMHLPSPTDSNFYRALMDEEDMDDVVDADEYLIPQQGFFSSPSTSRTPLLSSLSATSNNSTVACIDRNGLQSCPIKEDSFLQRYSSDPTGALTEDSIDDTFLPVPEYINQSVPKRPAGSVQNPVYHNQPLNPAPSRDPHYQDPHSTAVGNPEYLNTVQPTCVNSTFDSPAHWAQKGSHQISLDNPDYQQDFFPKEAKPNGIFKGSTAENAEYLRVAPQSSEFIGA
T6 sequence (P04626 with tags, fused parts or gaps DUP772-775): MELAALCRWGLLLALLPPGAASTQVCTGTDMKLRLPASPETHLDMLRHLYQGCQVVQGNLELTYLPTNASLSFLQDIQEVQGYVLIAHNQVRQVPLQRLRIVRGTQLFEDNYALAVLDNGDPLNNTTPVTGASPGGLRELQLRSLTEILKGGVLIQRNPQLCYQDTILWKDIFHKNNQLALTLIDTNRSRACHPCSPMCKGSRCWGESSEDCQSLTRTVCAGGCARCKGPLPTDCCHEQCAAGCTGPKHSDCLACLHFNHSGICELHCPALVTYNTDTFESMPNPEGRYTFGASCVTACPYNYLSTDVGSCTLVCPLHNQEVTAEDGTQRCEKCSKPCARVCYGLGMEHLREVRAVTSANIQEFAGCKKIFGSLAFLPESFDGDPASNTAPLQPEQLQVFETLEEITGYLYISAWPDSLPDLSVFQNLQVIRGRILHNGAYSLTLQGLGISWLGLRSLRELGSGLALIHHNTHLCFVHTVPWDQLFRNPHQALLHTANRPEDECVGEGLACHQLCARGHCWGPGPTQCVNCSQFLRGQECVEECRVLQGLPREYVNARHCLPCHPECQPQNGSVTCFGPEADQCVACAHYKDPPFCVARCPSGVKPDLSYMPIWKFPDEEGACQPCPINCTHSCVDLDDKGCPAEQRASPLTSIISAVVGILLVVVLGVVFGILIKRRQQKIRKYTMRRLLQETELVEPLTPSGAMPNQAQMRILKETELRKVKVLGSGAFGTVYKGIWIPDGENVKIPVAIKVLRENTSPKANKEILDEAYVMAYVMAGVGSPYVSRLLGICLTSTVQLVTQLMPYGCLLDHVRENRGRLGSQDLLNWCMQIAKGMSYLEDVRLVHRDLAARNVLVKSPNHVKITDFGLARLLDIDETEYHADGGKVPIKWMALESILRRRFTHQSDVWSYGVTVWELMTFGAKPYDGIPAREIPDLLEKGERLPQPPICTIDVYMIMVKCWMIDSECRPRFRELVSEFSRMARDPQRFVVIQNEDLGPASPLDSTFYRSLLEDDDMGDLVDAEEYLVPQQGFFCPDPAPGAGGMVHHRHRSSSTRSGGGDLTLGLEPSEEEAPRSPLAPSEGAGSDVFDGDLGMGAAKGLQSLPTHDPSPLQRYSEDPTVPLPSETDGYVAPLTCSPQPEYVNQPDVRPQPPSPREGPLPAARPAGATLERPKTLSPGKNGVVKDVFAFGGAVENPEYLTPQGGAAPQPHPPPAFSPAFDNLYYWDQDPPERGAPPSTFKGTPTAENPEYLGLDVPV
T3 sequence (P00533 with tags, fused parts or gaps DUP771-773): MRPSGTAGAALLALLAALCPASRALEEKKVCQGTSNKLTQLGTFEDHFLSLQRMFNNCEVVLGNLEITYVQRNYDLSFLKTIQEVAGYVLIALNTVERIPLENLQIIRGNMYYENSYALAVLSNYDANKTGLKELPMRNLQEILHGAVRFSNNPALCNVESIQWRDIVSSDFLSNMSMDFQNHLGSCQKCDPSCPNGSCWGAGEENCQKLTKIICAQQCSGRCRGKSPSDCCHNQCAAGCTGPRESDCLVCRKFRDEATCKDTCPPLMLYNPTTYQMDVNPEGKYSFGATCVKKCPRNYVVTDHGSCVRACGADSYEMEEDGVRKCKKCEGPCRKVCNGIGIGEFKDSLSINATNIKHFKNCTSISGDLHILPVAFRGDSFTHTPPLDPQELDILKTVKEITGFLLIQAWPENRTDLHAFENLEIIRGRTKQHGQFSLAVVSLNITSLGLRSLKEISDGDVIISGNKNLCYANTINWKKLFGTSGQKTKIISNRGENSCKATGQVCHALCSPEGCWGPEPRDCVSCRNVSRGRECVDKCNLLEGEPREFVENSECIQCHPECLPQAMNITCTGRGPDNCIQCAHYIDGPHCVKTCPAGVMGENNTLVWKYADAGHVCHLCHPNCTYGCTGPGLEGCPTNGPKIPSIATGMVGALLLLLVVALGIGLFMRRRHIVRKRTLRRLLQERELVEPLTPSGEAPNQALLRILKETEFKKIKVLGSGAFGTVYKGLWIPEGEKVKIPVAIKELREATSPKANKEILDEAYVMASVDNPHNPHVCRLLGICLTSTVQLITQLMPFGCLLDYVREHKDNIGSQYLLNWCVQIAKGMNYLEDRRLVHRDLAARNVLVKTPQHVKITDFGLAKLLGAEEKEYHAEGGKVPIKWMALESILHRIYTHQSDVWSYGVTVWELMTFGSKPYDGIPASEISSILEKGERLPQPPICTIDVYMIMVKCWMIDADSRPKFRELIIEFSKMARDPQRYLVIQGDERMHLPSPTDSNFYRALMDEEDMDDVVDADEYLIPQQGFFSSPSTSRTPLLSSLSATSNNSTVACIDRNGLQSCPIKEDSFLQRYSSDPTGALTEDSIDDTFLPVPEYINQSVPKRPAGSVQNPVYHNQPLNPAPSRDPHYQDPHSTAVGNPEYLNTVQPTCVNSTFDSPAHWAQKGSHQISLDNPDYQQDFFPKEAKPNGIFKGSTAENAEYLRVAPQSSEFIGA
T1 sequence (P00533 with tags, fused parts or gaps DUP767-769): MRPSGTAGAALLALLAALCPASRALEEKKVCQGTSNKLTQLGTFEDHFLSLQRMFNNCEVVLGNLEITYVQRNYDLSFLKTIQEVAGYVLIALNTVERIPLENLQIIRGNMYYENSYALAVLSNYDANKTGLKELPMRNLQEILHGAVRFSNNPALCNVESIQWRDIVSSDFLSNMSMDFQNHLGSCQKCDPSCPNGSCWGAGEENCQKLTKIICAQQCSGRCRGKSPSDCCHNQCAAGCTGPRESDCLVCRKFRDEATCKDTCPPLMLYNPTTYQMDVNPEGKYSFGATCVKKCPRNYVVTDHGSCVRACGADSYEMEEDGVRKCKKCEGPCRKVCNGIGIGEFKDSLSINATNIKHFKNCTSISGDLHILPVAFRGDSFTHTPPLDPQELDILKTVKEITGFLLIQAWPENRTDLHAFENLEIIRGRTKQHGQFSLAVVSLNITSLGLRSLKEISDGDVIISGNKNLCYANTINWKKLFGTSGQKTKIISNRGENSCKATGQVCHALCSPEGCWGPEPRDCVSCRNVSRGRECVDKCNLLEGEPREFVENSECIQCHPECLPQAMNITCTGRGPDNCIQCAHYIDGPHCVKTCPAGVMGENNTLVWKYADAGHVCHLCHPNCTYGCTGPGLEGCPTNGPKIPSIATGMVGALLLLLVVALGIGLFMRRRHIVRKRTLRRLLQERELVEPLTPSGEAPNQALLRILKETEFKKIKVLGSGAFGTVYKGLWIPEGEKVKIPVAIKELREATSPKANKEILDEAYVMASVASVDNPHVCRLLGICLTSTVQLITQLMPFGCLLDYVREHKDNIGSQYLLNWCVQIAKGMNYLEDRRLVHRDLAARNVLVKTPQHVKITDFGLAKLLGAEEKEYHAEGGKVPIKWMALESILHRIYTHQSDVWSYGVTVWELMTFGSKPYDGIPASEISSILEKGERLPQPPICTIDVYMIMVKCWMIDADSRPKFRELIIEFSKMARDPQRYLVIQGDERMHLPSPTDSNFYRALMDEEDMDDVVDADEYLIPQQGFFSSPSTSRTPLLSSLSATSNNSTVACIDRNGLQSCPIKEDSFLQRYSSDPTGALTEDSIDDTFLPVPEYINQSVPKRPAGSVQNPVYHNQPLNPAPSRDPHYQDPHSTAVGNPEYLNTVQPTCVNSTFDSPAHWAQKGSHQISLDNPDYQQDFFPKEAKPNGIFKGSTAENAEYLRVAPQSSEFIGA

Broadly, the pEC50 is −log10 of the EC50, conventionally taken in molar units. For `C=C(F)C(=O)N1CCC(Oc2cc3c(Nc4ccc(Cl)c(Cl)c4F)ncnc3cc2OC)CC1` [Compound 50, 1-(4-((4-((3,4-dichloro-2-fluorophenyl)amino)-7-methoxyquinazolin-6-yl)oxy)piperidin-1-yl)-2-fluoroprop-2-en-1-one], the pEC50 is no less than 6.70 on Ba/F3 stable cells [1]; less than 6.00 on Ba/F3 stable cells [2]; 6.00 to 6.70 at Ba/F3 stable cells [3]; no less than 6.70 at Ba/F3 stable cells [4]; less than 6.00 on Ba/F3 stable cells [5]; 6.00 to 6.70 on Ba/F3 stable cells [6].

Take `C#CC(=O)N1CCC(Oc2cc3c(Nc4ccc(Cl)c(Cl)c4F)ncnc3cc2OC)CC1` [Compound 52, 1-(4-((4-((3,4-dichloro-2-fluorophenyl)amino)-7-methoxyquinazolin-6-yl)oxy)piperidin-1-yl)prop-2-yn-1-one]: the pEC50 on Ba/F3 stable cells [1] is no less than 6.70; on Ba/F3 stable cells [2], no less than 6.70; at Ba/F3 stable cells [3], no less than 6.70; at Ba/F3 stable cells [4] it was no less than 6.70; on Ba/F3 stable cells [5], no less than 6.70; on Ba/F3 stable cells [6] it was 6.00 to 6.70.

As to `C#CC(=O)N1CCC(Oc2cc3c(Nc4ccc5ccccc5c4)ncnc3cc2OC)CC1` [Compound 53, 1-(4-((7-methoxy-4-(naphthalen-2-ylamino)quinazolin-6-yl)oxy)piperidin-1-yl)prop-2-yn-1-one], the pEC50 at Ba/F3 stable cells [1], at Ba/F3 stable cells [2], on Ba/F3 stable cells [3], at Ba/F3 stable cells [4], at Ba/F3 stable cells [5] and on Ba/F3 stable cells [6] was no less than 6.70 throughout.

On to `C#CC(=O)N1CCC(Oc2cc3c(Nc4cccc5ccccc45)ncnc3cc2OC)CC1` [Compound 54, 1-(4-((7-methoxy-4-(naphthalen-1-ylamino)quinazolin-6-yl)oxy)piperidin-1-yl)prop-2-yn-1-one], for which the pEC50 at Ba/F3 stable cells [1], on Ba/F3 stable cells [2], at Ba/F3 stable cells [3], on Ba/F3 stable cells [4], on Ba/F3 stable cells [5] and on Ba/F3 stable cells [6] was no less than 6.70 each time.

Consider `C#CC(=O)N1C2CCC1CC(Oc1cc3c(Nc4cccc5c4CCC5)ncnc3cc1OC)C2` (stereo not drawn) [Compound 56, 1-(3-((4-((2,3-dihydro-1H-inden-4-yl)amino)-7-methoxyquinazolin-6-yl)oxy)-8-azabicyclo[3.2.1]octan-8-yl)prop-2-yn-1-one], for which the pEC50 at Ba/F3 stable cells [1] was no less than 6.70; on Ba/F3 stable cells [2] it was 6.00 to 6.70; at Ba/F3 stable cells [3] it was no less than 6.70; at Ba/F3 stable cells [4], no less than 6.70; at Ba/F3 stable cells [5], 6.00 to 6.70; at Ba/F3 stable cells [6] it was 6.00 to 6.70.

For `C#CC(=O)N1C2CCCC1CC(Oc1cc3c(Nc4cccc5ccccc45)ncnc3cc1OC)C2` (stereo not drawn) [Compound 57, 1-(3-((7-methoxy-4-(naphthalen-1-ylamino)quinazolin-6-yl)oxy)-9-azabicyclo[3.3.1]nonan-9-yl)prop-2-yn-1-one], the pEC50 at Ba/F3 stable cells [1], at Ba/F3 stable cells [2], at Ba/F3 stable cells [3], at Ba/F3 stable cells [4], on Ba/F3 stable cells [5] and at Ba/F3 stable cells [6] was no less than 6.70 throughout.

Turning to `C#CC(=O)N1C2CCCC1CC(Oc1cc3c(Nc4ccc5ccccc5c4)ncnc3cc1OC)C2` (stereo not drawn) [Compound 58, 1-(3-((7-methoxy-4-(naphthalen-2-ylamino)quinazolin-6-yl)oxy)-9-azabicyclo[3.3.1]nonan-9-yl)prop-2-yn-1-one], the pEC50 at Ba/F3 stable cells [1] was no less than 6.70; at Ba/F3 stable cells [2], 6.00 to 6.70; at Ba/F3 stable cells [3] it was no less than 6.70; at Ba/F3 stable cells [4] it was no less than 6.70; on Ba/F3 stable cells [5] it was no less than 6.70; on Ba/F3 stable cells [6], no less than 6.70.

`C#CC(=O)N1C2CCC1CC(Oc1cc3c(Nc4ccc5ccccc5c4)ncnc3cc1OC)C2` (stereo not drawn) [Compound 59, 1-(3-((7-methoxy-4-(naphthalen-2-ylamino)quinazolin-6-yl)oxy)-8-azabicyclo[3.2.1]octan-8-yl)prop-2-yn-1-one]: the negative-log EC50 (pEC50) is no less than 6.70 at Ba/F3 stable cells [1]; 6.00 to 6.70 at Ba/F3 stable cells [2]; no less than 6.70 on Ba/F3 stable cells [3]; no less than 6.70 at Ba/F3 stable cells [4]; no less than 6.70 at Ba/F3 stable cells [5]; 6.00 to 6.70 at Ba/F3 stable cells [6].
